Each molecule was assayed against T1, bromodomain BRD4 (44-168), BRD4 (333-460), and BRD4 (1-477 or 44-460) (Homo sapiens, UniProt O60885) (assay: Time Resolved Fluorescence Resonance Energy Transfer (TR-FRET) binding assay). Conditions: one of the FRET assays described.
T1 construct: BRD4(44-168), BRD4(333-460), BRD4(44-460), BRD4(1-477), O60885-1; fused on or other part: N-terminal BirA biotinylation motif, biotinylated; The TVMV-cleavable His6 tag is removed, except in some BRD4(44-460) runs detected with anti-His terbium cryptate

IC50 [nM]	Structure (SMILES)
< 50	Cc1noc(C)c1-c1cc(C(N)=O)c2c3cc(C(=O)N4CCCCC4C)ccc3n(Cc3ccccc3)c2c1 (centres unmarked) [Example 73]
< 500	CNC(=O)c1cc(-c2c(C)noc2C)cc2c1c1cc(C(=O)N3CC(F)C3)ccc1n2Cc1ccc(F)cc1F [Example 106]
< 50	Cc1noc(C)c1-c1cc(C(N)=O)c2c3cc(C(=O)N4CCC4C)ccc3n(Cc3ccccc3)c2c1 (centres unmarked) [Example 54]
< 50	Cc1noc(C)c1-c1cc(C(N)=O)c2c3ccc(C(C)(C)O)cc3n(CC3CCOCC3)c2c1 [Example 197, 2-(3,5-dimethyl-4-isoxazolyl)-7-(1-hydroxy-1-methylethyl)-9-(tetrahydro-2H-pyran-4-ylmethyl)-9H-carbazole-4-carboxamide]
< 500	Cc1noc(C)c1-c1cc(C(N)=O)c2c3cc(N4CCOC4=O)ccc3n(Cc3ccc(Cl)c(F)c3)c2c1 [Example 164, 9-(4-chloro-3-fluorobenzyl)-2-(3,5-dimethyl-4-isoxazolyl)-6-(2-oxo-1,3-oxazolidin-3-yl)-9H-carbazole-4-carboxamide]
< 50	Cc1noc(C)c1-c1cc(C(N)=O)c2c3cc(C(=O)N4CCC(C)CC4)ccc3n(Cc3ccccc3)c2c1 [Example 74]
< 50	Cc1noc(C)c1-c1cc(C(N)=O)c2c3cc(C(=O)N(C)C)ccc3n(Cc3ccccc3)c2c1 [Example 48]
< 500	Cc1noc(C)c1-c1ccc2c3cc(C(=O)N4CC(C)OC(C)C4)ccc3n(Cc3ccccc3Cl)c2c1 (centres unmarked) [Example 11]
< 50	COC(=O)Nc1ccc2c(c1)c1c(C(N)=O)cc(-c3c(C)noc3C)cc1n2Cc1ccccc1 [Example 144, methyl (9-benzyl-5-carbamoyl-7-(3,5-dimethyl-4-isoxazolyl)-9H-carbazol-3-yl)carbamate]
< 50	Cc1noc(C)c1-c1cc(C(N)=O)c2c3cc(C(=O)N4CC[C@H](F)C4)ccc3n(Cc3ccccc3)c2c1 [Example 59]
< 50	Cc1noc(C)c1-c1cc(C(N)=O)c2c3cc(O)ccc3n(Cc3ccccc3)c2c1 [Example 178, 9-benzyl-2-(3,5-dimethyl-4-isoxazolyl)-6-hydroxy-9H-carbazole-4-carboxamide]
< 50	Cc1noc(C)c1-c1cc(C(N)=O)c2c3cc(C(=O)NCCN4CCOCC4)ccc3n(Cc3ccccc3)c2c1 [Example 76]
< 500	Cc1noc(C)c1-c1cc(C(N)=O)c2c(c1)[nH]c1ccc(N3CCCOC3=O)cc12 [Example 150, 2-(3,5-dimethyl-4-isoxazolyl)-6-(2-oxo-1,3-oxazinan-3-yl)-9H-carbazole-4-carboxamide]
< 50	CNC(=O)c1cc(-c2c(C)noc2C)cc2c1c1cc(C(=O)N3C[C@@H](C)O[C@@H](C)C3)ccc1n2Cc1ccccc1 [Example 117, 9-benzyl-2-(3,5-dimethylisoxazol-4-yl)-6-(cis-2,6-dimethylmorpholine-4-carbonyl)-N-methyl-9H-carbazole-4-carboxamide]
< 50	COc1ccc2c(c1)c1c(C(N)=O)cc(-c3c(C)noc3C)cc1n2C(C)c1ccccc1 (single isomer, unassigned) [Example 180, 2-(3,5-dimethyl-4-isoxazolyl)-6-methoxy-9-(1-phenylethyl)-9H-carbazole-4-carboxamide]
< 50	Cc1nnn(C)c1-c1cc(C(N)=O)c2c3ccc(C(C)(C)O)cc3n(C(c3ccccc3)C3CCOCC3)c2c1 (single isomer, unassigned) [Example 233, 2-(1,4-Dimethyl-1H-1,2,3-triazol-5-yl)-7-(2-hydroxypropan-2-yl)-9-(phenyl(tetrahydro-2H-pyran-4-yl)methyl)-9H-carbazole-4-carboxamide]
< 500	COc1ccccc1Cn1c2ccc(C(=O)N3CC(C)OC(C)C3)cc2c2ccc(-c3c(C)noc3C)cc21 (centres unmarked) [Example 15]
< 50	Cc1noc(C)c1-c1cc(C(N)=O)c2c3cc(N4CCCOC4=O)ccc3n(Cc3cc(F)ccc3F)c2c1 [Example 159, 9-(2,5-difluorobenzyl)-2-(3,5-dimethyl-4-isoxazolyl)-6-(2-oxo-1,3-oxazinan-3-yl)-9H-carbazole-4-carboxamide]
< 500	Cc1noc(C)c1-c1cc(C(N)=O)c2c3ccc(C(=O)c4cccc(F)c4)cc3n(Cc3ccccc3)c2c1 [Example 190, 9-Benzyl-2-(3,5-dimethyl-4-isoxazolyl)-7-(3-fluorobenzoyl)-9H-carbazole-4-carboxamide]
< 50	CNC(=O)c1cc(-c2c(C)noc2C)cc2c1c1cc(N(C)C(C)=O)ccc1n2Cc1ccccc1 [Example 132, 6-(acetyl(methyl)amino)-9-benzyl-2-(3,5-dimethyl-4-isoxazolyl)-N-methyl-9H-carbazole-4-carboxamide]
< 500	Cc1noc(C)c1-c1ccc2c3cc(C(=O)N4C[C@@H](C)O[C@@H](C)C4)ccc3n(C(=O)c3ccccc3)c2c1 [Example 24, 9-benzoyl-2-(3,5-dimethyl-4-isoxazolyl)-6-((cis-2,6-dimethyl-4-morpholinyl)carbonyl)-9H-carbazole]
< 500	Cc1ccccc1Cn1c2ccc(C(=O)N3CC(C)OC(C)C3)cc2c2ccc(-c3c(C)noc3C)cc21 (centres unmarked) [Example 19]

Second part, the molecule before the results:

Structure (SMILES)	IC50 [nM]
Cc1noc(C)c1-c1cc(C(N)=O)c2c3cc(N4CC(C)(C)COC4=O)ccc3n(Cc3ccc(F)cc3)c2c1 [Example 153, 2-(3,5-dimethyl-4-isoxazolyl)-6-(5,5-dimethyl-2-oxo-1,3-oxazinan-3-yl)-9-(4-fluorobenzyl)-9H-carbazole-4-carboxamide]	< 50
Cc1noc(C)c1-c1cc(C(N)=O)c2c3cc(N4CCOC4=O)ccc3n(Cc3ccc(F)cc3)c2c1 [Example 152, 2-(3,5-dimethyl-4-isoxazolyl)-9-(4-fluorobenzyl)-6-(2-oxo-1,3-oxazolidin-3-yl)-9H-carbazole-4-carboxamide]	< 50
Cc1noc(C)c1-c1cc(C(N)=O)c2c3ccc(C(C)(C)O)c(F)c3n(C(CCC(F)(F)F)c3ccccc3)c2c1 (single isomer, unassigned) [Example 230, 2-(dimethyl-1,2-oxazol-4-yl)-8-fluoro-7-(2-hydroxypropan-2-yl)-9-[4,4,4-trifluoro-1-phenylbutyl]-9H-carbazole-4-carboxamide]	< 50
Cc1noc(C)c1-c1cc(C(N)=O)c2c3cc(C(=O)N4CC(F)C4)ccc3n(C(C)c3cccc(C(F)(F)F)c3)c2c1 (centres unmarked) [Example 88]	< 50
Cc1noc(C)c1-c1ccc2c3cc(C(=O)N4CC(C)OC(C)C4)ccc3n(Cc3cccc(F)c3)c2c1 (centres unmarked) [Example 17]	< 500
Cc1noc(C)c1-c1ccc2c3cc(C(=O)N4CC(C)OC(C)C4)ccc3n(CC3CC3)c2c1 (centres unmarked) [Example 5]	< 500
Cc1noc(C)c1-c1cc(C(N)=O)c2c3cc(N(CCO)CCO)ccc3n(Cc3ccccc3)c2c1 [Example 140, 9-benzyl-6-(bis(2-hydroxyethyl)amino)-2-(3,5-dimethyl-4-isoxazolyl)-9H-carbazole-4-carboxamide]	< 50
Cc1noc(C)c1-c1cc(C(N)=O)c2c3cc(NC(=O)N(C)C)ccc3n(Cc3ccccc3)c2c1 [Example 147, 9-benzyl-6-((dimethylcarbamoyl)amino)-2-(3,5-dimethyl-4-isoxazolyl)-9H-carbazole-4-carboxamide]	< 50
CNC(=O)Nc1ccc2c(c1)c1c(C(N)=O)cc(-c3c(C)noc3C)cc1n2Cc1ccccc1 [Example 148, 9-benzyl-2-(3,5-dimethyl-4-isoxazolyl)-6-((methylcarbamoyl)amino)-9H-carbazole-4-carboxamide]	< 50
CNC(=O)c1cc(-c2c(C)noc2C)cc2c1c1cc(C(=O)N3CC(F)C3)ccc1n2C(C)c1ccc(Cl)cc1 (centres unmarked) [Example 111]	< 50
Cc1noc(C)c1-c1cc(C(N)=O)c2c3ccc(C(C)(C)O)c(F)c3n(C(c3ccccc3)C3CCC(F)(F)CC3)c2c1 (single isomer, unassigned) [Example 227, 9-[(4,4-difluorocyclohexyl)(phenyl)methyl]-2-(dimethyl-1,2-oxazol-4-yl)-8-fluoro-7-(2-hydroxypropan-2-yl)-9H-carbazole-4-carboxamide]	< 50
Cc1noc(C)c1-c1cc(C(=O)N(C)C)c2c3cc(C(=O)N4C[C@@H](C)O[C@@H](C)C4)ccc3n(Cc3ccccc3)c2c1 [Example 118, 9-benzyl-2-(3,5-dimethylisoxazol-4-yl)-6-(cis-2,6-dimethylmorpholine-4-carbonyl)-N,N-dimethyl-9H-carbazole-4-carboxamide]	< 500
CNC(=O)c1cc(-c2c(C)noc2C)cc2c1c1cc(C(=O)N3CC(F)C3)ccc1n2Cc1ccc(F)cc1 [Example 103]	< 50
Cc1noc(C)c1-c1cc(C(N)=O)c2c3cc(C(=O)N4CCC(CO)CC4)ccc3n(Cc3ccccc3)c2c1 [Example 68]	< 50
CNC(=O)c1cc(-c2c(C)noc2C)cc2c1c1cc(N3CCCOC3=O)ccc1n2Cc1ccc(Cl)cc1 [Example 170, 9-(4-chlorobenzyl)-2-(3,5-dimethyl-4-isoxazolyl)-N-methyl-6-(2-oxo-1,3-oxazinan-3-yl)-9H-carbazole-4-carboxamide]	< 50
Cc1noc(C)c1-c1cc(C(N)=O)c2c3cc(C(=O)N4CC(F)C4)ccc3n(C(C)c3ccccc3)c2c1 (centres unmarked) [Example 85, 2-(3,5-dimethyl-4-isoxazolyl)-6-((3-fluoro-1-azetidinyl)carbonyl)-9-(1-phenylethyl)-9H-carbazole-4-carboxamide]	< 50
Cc1noc(C)c1-c1cc(C(N)=O)c2c3cc(N4CCCOC4=O)ccc3n(Cc3ccc(Cl)cc3)c2c1 [Example 157, 9-(4-chlorobenzyl)-2-(3,5-dimethyl-4-isoxazolyl)-6-(2-oxo-1,3-oxazinan-3-yl)-9H-carbazole-4-carboxamide]	< 50
Cc1noc(C)c1-c1cc(C(N)=O)c2c3cc(C(=O)N4CC(C)OC(C)C4)ccc3n(Cc3nccs3)c2c1 (centres unmarked) [Example 30]	< 50
Cc1noc(C)c1-c1cc(C(N)=O)c2c3cc(C(=O)N4CC(C)OC(C)C4)ccc3n(Cc3ccccc3C#N)c2c1 (centres unmarked) [Example 43]	< 50
